From patent US12700475B2, “Systems and methods for dissecting heterogeneous cell populations” (California Institute of Technology, priority 2018, dated 2026)

B1: BMP4: signaling factor (Peprotech) important in neural stem cell differentiation into astrocytes (protein, UniProt P12644 293-408, looked up)
Bone morphogenetic protein 4: SPKHHSQRARKKNKNCRRHSLYVDFSDVGWNDWIVAPPGYQAFYCHGDCPFPLADHLNSTNHAIVQTLVNSVNSSIPKACCVPTELSAISMLYLDEYDKVVLKNYQEMVVEGCGCR
B2: DLL: DLL1 ligand, surface-coated onto tissue culture plastic (protein, UniProt O00548 18-723, looked up)
Delta-like protein 1: QVWSSGVFELKLQEFVNKKGLLGNRNCCRGGAGPPPCACRTFFRVCLKHYQASVSPEPPCTYGSAVTPVLGVDSFSLPDGGGADSAFSNPIRFPFGFTWPGTFSLIIEALHTDSPDDLATENPERLISRLATQRHLTVGEEWSQDLHSSGRTDLKYSYRFVCDEHYYGEGCSVFCRPRDDAFGHFTCGERGEKVCNPGWKGPYCTEPICLPGCDEQHGFCDKPGECKCRVGWQGRYCDECIRYPGCLHGTCQQPWQCNCQEGWGGLFCNQDLNYCTHHKPCKNGATCTNTGQGSYTCSCRPGYTGATCELGIDECDPSPCKNGGSCTDLENSYSCTCPPGFYGKICELSAMTCADGPCFNGGRCSDSPDGGYSCRCPVGYSGFNCEKKIDYCSSSPCSNGAKCVDLGDAYLCRCQAGFSGRHCDDNVDDCASSPCANGGTCRDGVNDFSCTCPPGYTGRNCSAPVSRCEHAPCHNGATCHERGHRYVCECARGYGGPNCQFLLPELPPGPAVVDLTEKLEGQGGPFPWVAVCAGVILVLMLLLGCAAVVVCVRLRLQKHRPPADPCRGETETMNNLANCQREKDISVSIIGATQIKNTNKKADFHGDHSADKNGFKARYPAVDYNLVQDLKGDDTAVRDAHSKRDTKCQPQGSSGEEKGTPTTLRGGEASERKRPDSGCSTSKDTKYQSVYVISEEKDECVIATEV
modifications: surface-coated
notes: DLL1 ligand, surface-coated onto tissue culture plastic

Experiments:
[1] = tested on: neural progenitor subpopulation from the ventricular zone (VZ); test: High-concentration additional signals on ventricular zone cells: neural progenitor subpopulation aligned to VZ-D0, differential genes by L1-norm; assay type: cell-based, mouse
Protocol: Having seen that these signals can control population structure, whether these additional signals induced major transcriptional changes in neural stem cells was determined. Further, whether any changes restored the functional defects observed in response to in vitro culture was determined. To learn these transcriptional changes, a new experiment was performed using high concentrations of signaling factors for two reasons: 1) the original combinatorial screen required the cells to be fixed in methanol, which may disrupt gene expression values thus making comparing that data directly to the in vivo data difficult and 2) the original combinatorial screen suffered from low sample number for some of the conditions, due to variation in proliferation rate. This new experiment was performed by adding high concentrations of additional signals (BMP4 (20 ng/mL), CHIR (3 uM), PDGF-AA (20 ng/mL) and DLL1 (surface-coated)) in addition to high concentrations of EGF/FGF immediately after dissociation of cells from the VZ, and all cells were grown for five days in these signal cocktails before profiling.
First, models were built for all of the new samples, aligned each to the VZ-D0 sample (which served as the control), and then only the subpopulations across all samples that aligned to the neural progenitor population were pulled out (FIG. 39B). By plotting the Jeffreys Divergence between these aligned populations (FIG. 39C), all the in vivo populations (E15, E18, and VZ-D0) were seen to be close to each other, while in vitro populations were very distant (VZ-D18 and ivNSC).
To confirm this possibility, the genes that were differentially expressed in the BMP4-, DLL-, PDGF-, and CHIR-containing cells were examined, and these genes were compared to the genes discovered in FIG. 36A-36I. […] By contrast, CHIR only rescued 3 of the lost genes, while DLL and PDGF had only one differentially regulated gene each (FIG. 39D).
Normally in development, these neural progenitors give rise to neurons that form six distinct layers in the cortex. These cortical layers have distinct functions, connectivity patterns, and gene expression patterns, which have been characterized in the literature. The gene expression patterns of these layer-specific genes were examined in neural progenitor populations aligned across all samples (FIGS. 39H-39I). Expression of these genes, while noisy, was very extensive in the in vivo populations, but that culture in vitro erased their expression.
Neuroprogenitors are dissociated from the combined cortex, hippocampus and ventricular zone of E18 mice (Brainbits). After dissociation and resuspension of the cells in NPgrow, cells were counted and plated onto ultra-low attachment 100 mm culture plates (Corning) at one million cells per plate in 10 mL of NPgrow supplemented with 1% Penicillin-Streptomycin. Cells were cultured at 37° C. and 5% CO2 and supplemented medium was changed every 3 to 4 days. In some experiments, subventricular zone (SVZ) stem cells were derived with supplemental factors during derivation. PDGF-AA and BMP4 (Peprotech) were used at […], and 20 ng/mL. CHIR99021 (Stem Cell) was used at 3 uM. DLL1 ligand was coated onto tissue culture plastic for one hour before plating cells.
For each gene, two empirical distributions P1(g), P2(g), one for each subpopulation, were determined. These distributions were discretized over identical histogram binnings, a, over the gene's entire range of expression, Ω. Then the L1 distance was defined as: d=sign(g2−g1)Σa∈Ω∥P1(a)−P2(a)∥1, where g1 and g2 denote the respective means of subpopulations 1 and 2. […] The L1 distance ranged from −2 to +2, both of which corresponded to completely non-overlapping distributions. Genes with L1 distances of high magnitude (≳0.5) always had distributions which, by eye, were in obvious agreement with the labeled directionality. […] Query.

[2] = tested on: neural stem cells / progenitor subpopulations from E18 mouse brain; test: Combinatorial signal screen on cells dissociated from the brain: LLR ranking, query, multinomial logistic regression of subpopulation abundances; assay type: cell-based; details: for log-likelihood ratio (LLR) score against control population: control 20 ng/mL EGF/FGF
Protocol: Next, whether and how signaling interventions can pre-emptively bias the transcriptional state of neural stem cells, potentially restoring lost functionality, were determined. Given the finding that transcriptional changes happened in less than three days after in vitro culture, signals were added immediately after dissociation from the brain. Signals known to be important in neural stem cell differentiation into astrocytes (BMP4), neurons (Wnt pathway through CHIR activation), or oligodendrocytes (PDGF-AA), were chosen. A combinatorial screen, in which these signals were added together with EGF/FGF at varying concentrations to dissociated cells from the brain, were performed. The cells were grown for 5 days before profiling. To profile all of these samples, a multiplexing approach, in which cells were methanol fixed and then covalently labeled with a separate exogenous DNA barcode for each experimental condition, was used. A total of 8691 cells were profiled across 19 conditions [See Methods—Experimental multiplexing using Clicktags in this example].
First, how the populations responded at a high-level were examined by using the PopAlign framework to build new models of populations, and the populations were ranked against a control population using a Log-likelihood ratio score (FIG. 38A). In this case, the control population was defined as the 20 ng/mL EGF/FGF condition, which is the concentration of growth factors normally used to propagate neural stem cells in culture. The log-likelihood ratio score is a single metric that measures the extent to which an entire population model diverges from a control population.
To investigate this more deeply, how the population structure of these progenitor cells responded to the signaling cues was determined. For this analysis the query function [See Methods—Query in this example] of the modeling framework was used to score all cells in each sample using a standard model built from the control population. For this combinatorial screen, some conditions suffered from poor sampling (roughly 100 cells vs. 1000 cells for most samples) due to variation in proliferation rates. Thus, querying all samples using the same model was more robust than building separate models (which can be of poor quality with severe undersampling). The first 3 principal components (PCs) were used as the feature vectors in order to improve the sampling within the gene expression space.
In this new analysis, the population were segmented into more fine-grained subpopulations (FIG. 38B). While there was a committed neuroblast population, the neural progenitor population now split into three subpopulations: (1) a proliferating progenitor (PP) population that actively expressed mitotic genes, (2) a non-proliferating progenitor population (NPP), as well as (3) a basal progenitor (BP) that only expressed the progenitor program (Prog), but not glial genes like ALDOC or SPARCL1. Using the control model, individual cells from each sample were scored and assigned into one of the four subpopulations, and abundances of each individual subpopulation across all experimental samples were (FIG. 38D).
To dissect how the abundances of these individual populations responded to signals, a multinomial logistic regression analysis was performed. Multinomial logistic regression models were used to determine the probability of each cell belonging to one of K mutually exclusive classes (in this case, the four subpopulations defined above) based on m independent predictor variables (in this case, the concentrations of each signal) [See Methods—Multinomial logistic regression in this example].
By examining the regression coefficients β, the relationship between each signal and how the signal regulates the proportions of each cell type can be determined. Importantly, the regression model only computed coefficients for K−1 of the outcome classes, while the K^th class was treated as a reference. […]

[3] = tested on: primary human peripheral blood mononuclear cells (PBMCs); test: PBMC signaling experiment: single-cell mRNA-seq with PopAlign alignment to the reference PBMC sample; assay type: cell-based; details: 1 ng/mL, 13 hours
Protocol: One non-limiting application of PopAlign is to study heterogeneous cell populations in the human body as they respond to environmental change, drug treatments, and disease. The human immune system is an extremely heterogeneous physiological system that is central for disease and cell engineering applications. As a test case, PopAlign was tested for its ability to identify subtype-specific signaling responses in a complex mixture of primary human immune cells. Thus, primary human peripheral blood mononuclear cells (PBMCs) (FIG. 17A) were treated with two lymphokines—granulocyte-macrophage colony-stimulating factor (GM-CSF) (FIG. 17C) and interferon-gamma (IFNG) (FIG. 17D) that are known to have a specific impact on monocytes (See Experimental Methods). […] In the reference PBMCs, five independent cell densities (FIG. 17A) were identified and classified using canonical markers from the literature (FIG. 17B). The signal treated cell-populations (FIGS. 17C-17D) were aligned to the PBMC data (FIG. 17A), finding that, for both signals, the monocyte populations (mixtures PBMC-1, PBMC-3) had the largest shifts in their average gene expression state (|Δμ|>0.04) (FIG. 17F). While T-cell abundances changed (numbers), their mean cell states (μ) had the lowest magnitude of gene expression shift. For immune cell experiments, the independent mixture components were classified as effector T cells (CD3+/CD57+), naive T-cells(CD3+/CD28+), erythrocytes (HBB+), canonical monocytes (CD14+/CD16low), and nonclassical monocytes(CD14low/CD16++) (FIG. 16E). Populations in the test samples—GM-CSF (FIG. 16B) and IFNG (FIG. 15C)—were aligned to the reference populations (control) by finding pairs of components that minimize the Jeffrey's divergence (FIG. 16D). Cryopreserved PBMCs sourced from Hemacare (~10 million cells, source ID: D23127, Lot: 17043194) were thawed in a 37° C. waterbath for 2 minutes after which the cells were transferred to a 15 mL conical tube. Prewarmed RPMI1640 was then added to the 15 mL conical to a final volume of 10 mL and centrifuged for 2 minutes at 300RCF to pellet the cells. Supernatant was removed and cells were resuspended in 10 mL of RPMI1640 supplemented with 10% FBS and 1% pen/strep. The cell suspension was then plated onto a 100 mm low attachment plate and placed in a CO2 incubator at 37° C. for 5 hours for the cells to recover. For each condition, 700,000 cells were aliquoted into a well of a 96 well plate. These cells were cultured for 13 hours under two different conditions: 1) IFN-γ@ 1 ng/mL, 2) GM-CSF 1 ng/mL, each with a single additional replicate. After incubation, the plate was sealed with an aluminum adhesive and centrifuged for 3 minutes at 300RCF. […]

Molecule	log-likelihood ratio (LLR) score against control population ([2]; 5 days)	class of transcriptional (signaling) response of canonical and non-canonical monocytes [3]	gene expression programs altered in monocytes [3]	number of differentially regulated genes ([1]; 5 days with high EGF/FGF)	also measured
Cc1c[nH]c(-c2cnc(NCCNc3ccc(C#N)cn3)nc2-c2ccc(Cl)cc2Cl)n1 [CHIR, CHIR99021, reference compound]	lowest LLR score				number of genes downregulated in ivNSCs that are re-induced (upregulated) by the signal ([1]; of 190 genes downregulated in ivNSCs vs E18 NProgs, 5 days with high EGF/FGF): 3 genes; odds ratio, proliferating progenitors (PP) vs non-proliferating progenitors (NPP) ([2]; per unit of signal (unit = maximum: EGF/FGF 20 ng/mL each, CHIR 3 uM), 5 days): 0.6
IFNG: lymphokine signal applied to PBMCs at 1 ng/mL		convergent	up-regulation of pathways involved in antigen presentation and phagocytosis		
GM-CSF: lymphokine signal applied to PBMCs at 1 ng/mL		additive	activating a new gene expression program called Chemokine Secretion/Leukocyte Migration pathway		
PDGF				one	odds ratio, basal progenitors vs non-proliferating progenitors ([2]; per unit of signal (PDGF-AA 20 ng/mL), 5 days): 1.75
B1	lowest LLR score				rescue of expression of cortical layer-specific genes in neural progenitors ([1]; 5 days in culture): only signal that could rescue the expression of these genes; number of genes upregulated in ivNSCs that are suppressed by the signal ([1]; 5 days with high EGF/FGF): 22 genes; Jeffreys Divergence of aligned neural progenitor subpopulation to in vivo populations ([1]; compared to VZ-D5, VZ-D5-CHIR, VZ-D5-DLL, VZ-D5-PDGF): closest to the in vivo populations; committed neuroblasts (CN) proportion of the population ([2]; addition of BMP and low EGF/FGF): ~50%; odds ratio, committed neuroblasts vs non-proliferating progenitors ([2]; per unit of signal (BMP4 20 ng/mL), 5 days): 2.2
B2				one	
